The values below come from PubChem BioAssay AID493003 (Sanford-Burnham Center for Chemical Genomics, 2010).

Usually IC50 stands for the concentration that inhibits the measured activity by half.

Active and inactive are the calls of the source. The rule behind the calls is not given here. Where only a bound is given, the exact number is not on record here.

This assay concerns S. cerevisiae tim10-1 mutant growth, luminescence. In words: growth inhibitors of tim10-1 mutant yeast, dose response, luminescence, S. cerevisiae, uHTS hits (AID 493003).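 Note: yeast growth measured after about 22 hours at 25 °C.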
Turning to `Cc1cc(C)cc(NC(=O)c2cc(S(=O)(=O)NCc3ccco3)ccc2F)c1`, the IC50 is 32.3 µM. With `O=c1c2ccccc2[se]n1-c1ccccc1` the figure was 10 µM. Under `CCN1C(=O)/C(=C/c2c(C)nn(C)c2C)SC1=S` stands 24.4 µM.

As to `O=C(NC(=S)NNC(=O)c1ccccc1[N+](=O)[O-])c1ccc(Br)cc1`, the IC50 is 10.1 µM. Under `COc1ccc(Cl)cc1NC(=S)NCCc1ccc(F)cc1` stands 7.09 µM; under `COc1cc(/C=N/O)ccc1Oc1ccc([N+](=O)[O-])cc1[N+](=O)[O-]`, 24.4 µM. Under `CC(NC(=O)Nc1cccc([N+](=O)[O-])c1)(C(F)(F)F)C(F)(F)F` stands 57.2 µM.

On to `CSc1nc(N)nc(-c2cccs2)c1C#N`, for which the concentration for half-maximal inhibition (IC50) was 32.5 µM. Under `CC(C)c1ccc(S(=O)(=O)Nc2ccc(SC(F)F)cc2)cc1` stands 45.9 µM; under `O=C(Nc1cc(Sc2ccccn2)cc([N+](=O)[O-])c1)c1cccc(Cl)c1`, 34.9 µM. Regarding `Cc1ccc(NC(=O)c2ccc([N+](=O)[O-])o2)c(C)c1`, the IC50 was 15.7 µM.

As to `CCCCn1nc(NC(=O)c2cccs2)c2cc3ccccc3nc21`, the IC50 was 73.9 µM. With `CC(C)(C)c1cc(C(=O)N/N=C/c2ccc(F)cc2)n(-c2ccccc2)n1` the figure was 36.4 µM. Under `Clc1ccc(Nc2nc(C3CC3)cs2)cc1` stands 39.8 µM; under `COCCNC(=S)N1CCN(c2nc(-c3ccccc3)cs2)CC1`, > 100 µM (inactive). Under `CN(C)CCCN1c2ccccc2CCc2ccc(Cl)cc21` stands 37.8 µM.

Take `O=C(Nc1ccc(C(=O)N2CCN(c3ccc(F)cc3)CC2)cc1)C1=CSCCO1`: the IC50 was 44.3 µM. Under `C=CCc1ccc(O)c(-c2cc(CC=C)ccc2O)c1` stands 68.3 µM; under `N#CC(C#N)=c1ccc2c(c1)NC1(CCCCC1)N=2`, 30.5 µM; under `CN1CCN(c2ccccc2NC(=O)c2ccc(-c3ccc(Cl)c(Cl)c3)o2)CC1`, 15.1 µM.

As to `Cc1nn(Cc2c(F)c(F)c(F)c(F)c2F)c(C)c1NC(=O)c1ccc(COc2ccccc2Cl)o1`, the IC50 is 60.3 µM. With `COc1ccc(-c2cc(C3CCN(C(=O)OC(C)(C)C)CC3)[nH]n2)cc1` the figure was 51.2 µM. Under `O=C1CC(N2CC=C(c3ccccc3)CC2)C(=O)N1c1ccc(F)cc1` (stereo unspecified) stands 14.7 µM; under `CCn1c(SCc2c(F)cccc2Cl)nnc1-c1ccco1`, 24.3 µM; under `CN(C)CCCN(C(=O)c1ccc(Cl)s1)c1nc2cc3c(cc2s1)OCO3`, 29.4 µM. Under `Clc1cccc(C2Nc3cccc4cccc(c34)N2)c1Cl` stands 25.7 µM; under `Clc1ccccc1Nc1nnc(-c2ccncc2)s1`, 52.7 µM. Consider `COC(=O)c1cccc(Nc2cc(C)nc(-c3ccccc3O)n2)c1`, for which the IC50 was > 100 µM (inactive). Under `CCOC(=O)n1c(=O)n(Cc2ccccc2Cl)c2ccccc21` stands 27.6 µM; under `Cc1ccc(C)c(S(=O)(=O)ON2C(=O)c3ccccc3C2=O)c1`, 22.1 µM.

Regarding `CCCCNC(=S)Nc1ccc(C(F)(F)F)cc1`, the IC50 was 18.3 µM. Under `CCN(CC)c1ccc(NC(=O)CCCCCN2C(=O)c3ccccc3C2=O)cc1` stands 14.3 µM. With `Cc1oc2cc(Br)c(O)c(Br)c2c1C(=O)c1ccccc1` the figure was 25.9 µM; with `Nc1nc(-c2ccc(Br)cc2)cs1`, 16.9 µM; with `COc1cc(/C=C/c2ccc3cccc(O)c3n2)c(Br)cc1O`, 15.4 µM.

As to `CCOC(=O)c1c(-c2ccccc2)oc2cc(Br)c(O)cc12`, the IC50 was 20.6 µM. Under `O=C(O)/C=C/C(=O)c1ccc2c(c1)CCc1ccccc1-2` stands 10.9 µM; under `C=CCn1c(N)c(C(=O)Nc2cccc(C)c2)c2nc3ccccc3nc21`, 17 µM; under `Cc1cc(NC(=O)C2CC2)ncc1NC(=O)C12CC3CC(CC(C3)C1)C2`, > 100 µM (inactive).

Regarding `Cc1cc(C)cc(NC(=O)c2ccc(Cn3nc(C)c(Cl)c3C)o2)c1`, the IC50 was 68.7 µM. On to `CCOc1ccccc1NC(=O)/C=C/C(N)=O`, for which the 50% inhibitory concentration (IC50) is 14.4 µM.
